Where a name gives a salt, the structure may show the parent alone. Read-outs that look alike come from different tables or passages of the source.
Legend:
[1] = tested on: vancomycin resistant enterococci; assay: MIC, agar dilution, multipoint inoculator; assay type: cell-based
Protocol: (§1) This activity was measured using a multipoint inoculator method as follows. The MIC for each compound was measured using an agar dilution method (Onda, H., et al., Int. J. Antimicrob. Agents. 18, 263 (2001)) (Mueller Hinton agar) by means of a multipoint inoculator delivering 10^4 colony forming units per spot.
It will be noted that compound 4PYcq was active against all strains of MRSA as well as all other Gram positive bacteria. For this reason it was further tested against some vancomycin resistant enterococci, using the multipoint inoculator method described above. It can be seen from Table 5 that the high level activity was retained.

S. epidemisis = assay: MIC, agar dilution, multipoint inoculator; assay type: cell-based, Staphylococcus epidermidis; details: Staphylococcus epidermidis
Summary of the method: (§2)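 Agar dilution on Mueller Hinton agar; a multipoint inoculator delivered 10^4 colony forming units per spot, and the MIC was taken for each compound.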

MRSA = assay: MIC, agar dilution, multipoint inoculator; assay type: cell-based, methicillin-resistant Staphylococcus aureus
Summary of the method: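 Agar dilution MIC on Mueller Hinton agar, multipoint inoculator delivering 10^4 colony forming units per spot. MRSA values are ranges across ten clinical MRSA strains; S. aureus NCTC 6571 as reference strain.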

E. faecium = assay: MIC, agar dilution, multipoint inoculator; assay type: cell-based, Enterococcus faecium; details: Enterococcus faecium
Summary of the method: as §2

E. cloacae = assay: MIC, agar dilution, multipoint inoculator; assay type: cell-based, Enterobacter cloacae; details: Enterobacter cloacae, NCTC11582, 18 h
Protocol: as §1

S. aureus = assay: MIC, agar dilution, multipoint inoculator; assay type: cell-based, Staphylococcus aureus; details: Staphylococcus aureus
Summary of the method: as §2

K. pneumoniae = assay: MIC, agar dilution, multipoint inoculator; assay type: cell-based, Klebsiella pneumoniae; details: Klebsiella pneumoniae, 18 h
Protocol: as §1

E. coli = assay: MIC, agar dilution, multipoint inoculator; assay type: cell-based, Escherichia coli
Protocol: as §1

P. auriginosa = assay: MIC, agar dilution, multipoint inoculator; assay type: cell-based, Pseudomonas aeruginosa; details: Pseudomonas aeruginosa, NCTC6749, 18 h
Protocol: as §1

S. marcesens = assay: MIC, agar dilution, multipoint inoculator; assay type: cell-based, Serratia marcescens; details: Serratia marcescens, 18 h
Protocol: as §1

S. aboni = assay: MIC, agar dilution, multipoint inoculator; assay type: cell-based; details: S. aboni NCTC 6017; upper value of MIC reading
Summary of the method: as §2

E. faecalis = assay: MIC, agar dilution, multipoint inoculator; assay type: cell-based; details: Enterococcus faecalis, upper value of MIC reading
Summary of the method: as §2

S. haemolyticus = assay: MIC, agar dilution, multipoint inoculator; assay type: cell-based; details: Staphylococcus haemolyticus, 18 h
Summary of the method: as §2

B. bronchiseptica = assay: MIC, agar dilution, multipoint inoculator; assay type: cell-based; details: Bordetella bronchiseptica, NCTC8344, 18 h
Summary of the method: as §2

S. maltophilia = assay: MIC, agar dilution, multipoint inoculator; assay type: cell-based; details: Stenotrophomonas maltophilia, NCTC10257, 18 h
Summary of the method: as §2

Moraxella catarrhalis = assay: MIC, doubling dilution in 96-well microtitre plate; assay type: cell-based
Protocol: (§3) The compound was tested as follows. […] The wells were inoculated with organism ([…] of medium containing 10^6 cfu/mL) and the plates were incubated at 37° C. overnight. Where growth of organism occurred this was observed as a small button when viewed from underneath the plate. The MIC was determined as the lowest concentration inhibiting growth.

Micrococcus luteus = assay: MIC, doubling dilution in 96-well microtitre plate; assay type: cell-based
Protocol: as §3

[2] = tested on: Streptococcus bovis NCTC 11436; assay: MIC, doubling dilution in 96-well microtitre plate; assay type: cell-based
Protocol: as §3

[3] = tested on: Staphylococcus aureus (MRSA) 96-7475; assay: MIC, doubling dilution in 96-well microtitre plate; assay type: cell-based
Protocol: as §3

Bacillus cereus = assay: MIC, doubling dilution in 96-well microtitre plate; assay type: cell-based
Protocol: as §3

[4] = tested on: Staphylococcus aureus W11 MRSA; assay: MIC, doubling dilution in 96-well microtitre plate; assay type: cell-based
Protocol: as §3

[5] = tested on: Enterococcus faecalis NCTC 5957; assay: MIC, doubling dilution in 96-well microtitre plate; assay type: cell-based
Protocol: as §3

[6] = tested on: Staphylococcus aureus NCTC 10788; assay: MIC, doubling dilution in 96-well microtitre plate; assay type: cell-based
Protocol: as §3

Enterococcus faecium = assay: MIC, doubling dilution in 96-well microtitre plate; assay type: cell-based
Protocol: as §3

[7] = tested on: Staphylococcus aureus NCTC 6571; assay: MIC, doubling dilution in 96-well microtitre plate; assay type: cell-based
Protocol: as §3

Bacillus subtilis = assay: MIC, doubling dilution in 96-well microtitre plate; assay type: cell-based
Protocol: as §3

[8] = tested on: Staphylococcus epidermidis NCTC 11047; assay: MIC, doubling dilution in 96-well microtitre plate; assay type: cell-based
Protocol: as §3

Bacillus polymyxa = assay: MIC, doubling dilution in 96-well microtitre plate; assay type: cell-based
Protocol: as §3

Micrococcus roseus = assay: MIC, doubling dilution in 96-well microtitre plate; assay type: cell-based
Protocol: as §3

Bacillus megarerium = assay: MIC, doubling dilution in 96-well microtitre plate; assay type: cell-based
Protocol: as §3

[9] = tested on: human mononuclear leucocytes (MNL, white blood cells); assay: direct leucocyte toxicity, tryptan blue exclusion, 18 hours; assay type: cell-based; details: human, 18 h, 1 mM
Protocol: The in vitro assay used human mononuclear leucocytes (MNL, white blood cells) which were incubated with the test compound for 18 hours and cell death determined by tryptan blue exclusion (tryptan blue is a dye, which stains dead cells, whilst living cells extrude it).
The toxicity of 4PYcq and the aldehyde cq and pyridine-4-carboxamidrazone precursors were assessed using the same in vitro assay with human mononuclear leucocytes as that described above. The toxicity of related compounds, 2-hydroxybenzylidene-pyridine-2-carboxamidrazone 4PYbw and benzylidenepyridine-2-carboxamidrazone 4PYaa were also examined.

[10] = tested on: human mononuclear leucocytes (MNL, white blood cells); details: rat liver microsomes added; Coleman et al 1999; cited from earlier work
E. faecium isolates = details: against 86% of E. faecium isolates; cited from earlier work
[11] = Enterococcus faecium ATCC 10541

## CN[C@H](CC(C)C)C(=O)N[C@H]1C(=O)N[C@@H](CC(N)=O)C(=O)N[C@H]2C(=O)N[C@H]3C(=O)N[C@H](C(=O)N[C@H](C(=O)O)c4cc(O)cc(O)c4-c4cc3ccc4O)[C@H](O)c3ccc(c(Cl)c3)Oc3cc2cc(c3O[C@@H]2O[C@H](CO)[C@@H](O)[C@H](O)[C@H]2O[C@H]2C[C@](C)(N)[C@H](O)[C@H](C)O2)Oc2ccc(cc2Cl)[C@H]1O [Vanc., Vancomycin hydrochloride, reference compound]
[1]; Culture 3001562
  MIC: 4 to 8 µg/mL
[1]; Culture 3002043
  MIC: 4 to 8 µg/mL
[1]; Culture 3002066
  MIC: 4 to 8 µg/mL
[1]; Culture 3005323
  MIC: > 16 µg/mL
[1]; Culture 3005426
  MIC: 4 to 8 µg/mL
[1]; Culture 3102095
  MIC: > 16 µg/mL
[1]; Culture 30053530
  MIC: > 16 µg/mL
S. epidemisis; 18 h
  MIC: 8 µg/mL
S. epidemisis; NCTC11047, 18 h
  MIC: 8 µg/mL
MRSA; MRSA Isolate 1, upper value of MIC reading, in µg/mL
  MIC: 0.12
MRSA; MRSA Isolate 2, upper value of MIC reading, in µg/mL
  MIC: 0.12
MRSA; MRSA Isolate 3, upper value of MIC reading, in µg/mL
  MIC: 0.12
MRSA; MRSA Isolate 4, upper value of MIC reading, in µg/mL
  MIC: 0.12
MRSA; MRSA Isolate 5, upper value of MIC reading, in µg/mL
  MIC: 0.12
MRSA; MRSA Isolate 6, upper value of MIC reading, in µg/mL
  MIC: 0.12
MRSA; MRSA Isolate 7, upper value of MIC reading, in µg/mL
  MIC: 0.12
MRSA; MRSA Isolate 8, upper value of MIC reading, in µg/mL
  MIC: 0.12
MRSA; MRSA Isolate 9, upper value of MIC reading, in µg/mL
  MIC: 0.12
MRSA; Staphylococcus aureus, 18 h
  MIC: 0.12 µg/mL
E. faecium; 18 h
  MIC: 0.12 µg/mL
E. faecium; NCTC7171, 18 h
  MIC: 0.12 µg/mL
E. cloacae
  MIC: > 16 µg/mL
S. aureus; 18 h
  MIC: 0.25 µg/mL
S. aureus; NCTC6571, 18 h
  MIC: 0.05 µg/mL
S. aureus; NCTC10788, 18 h
  MIC: 0.12 µg/mL
K. pneumoniae
  MIC: > 16 µg/mL
E. coli; E. coli W3110R+, upper value of MIC reading
  MIC: > 16 µg/mL
E. coli; Escherichia coli, 18 h
  MIC: > 16 µg/mL
P. auriginosa
  MIC: > 16 µg/mL
S. marcesens
  MIC: > 16 µg/mL
S. aboni
  MIC: 0.05 µg/mL
E. faecalis; 18 h, E. faecalis EBH1
  MIC: 0.12 µg/mL
E. faecalis; 18 h, E. faecalis Isolate 1
  MIC: 0.25 µg/mL
E. faecalis; 18 h, E. faecalis Isolate 2
  MIC: 0.25 µg/mL
E. faecalis; 18 h, E. faecalis Isolate 3
  MIC: 0.12 µg/mL
E. faecalis; 18 h, E. faecalis Isolate 4
  MIC: 16 µg/mL
E. faecalis; 18 h, E. faecalis Isolate 5
  MIC: 2 µg/mL
E. faecalis; NCTC5957, 18 h, E. faecalis NCTC 5957
  MIC: 0.25 µg/mL
S. haemolyticus
  MIC: 8 µg/mL
B. bronchiseptica
  MIC: > 16 µg/mL
S. maltophilia
  MIC: > 16 µg/mL

## CC(C)(C)c1cccc(C=NN=C(N)c2cc[n+]([O-])cc2)c1O [Compound 4PYOfg]
Moraxella catarrhalis
  MIC: 4 to 8 µg/mL
Micrococcus luteus
  MIC: 8 to 16 µg/mL
[2]
  MIC: 32 to 64 µg/mL

## CC(C)(C)c1cc(C=NN=C(N)c2cc[n+]([O-])cc2)cc(C(C)(C)C)c1 [Compound 4PYOff]
[3]
  MIC: 32 to 64 µg/mL
Bacillus cereus
  MIC: 32 to 64 µg/mL
[4]
  MIC: 32 to 64 µg/mL
[5]
  MIC: 32 to 64 µg/mL
Moraxella catarrhalis
  MIC: 16 to 32 µg/mL
[6]
  MIC: 32 to 64 µg/mL
Enterococcus faecium; [11]
  MIC: 32 to 64 µg/mL
[7]
  MIC: 32 to 64 µg/mL
Micrococcus luteus
  MIC: 32 to 64 µg/mL
[2]
  MIC: 32 to 64 µg/mL
Bacillus subtilis
  MIC: 32 to 64 µg/mL
[8]
  MIC: 32 to 64 µg/mL

## CC(C)(C)c1ccc(O)c(C=NN=C(N)c2cc[n+]([O-])cc2)c1 [Compound 4PYOfe]
Moraxella catarrhalis
  MIC: 8 to 16 µg/mL
Micrococcus luteus
  MIC: 8 to 16 µg/mL

## CC(C)(C)c1cc(C=NN=C(N)c2cc[n+]([O-])cc2)c(O)c(C(C)(C)C)c1 [Compound 4PYOcq]
[3]
  MIC: 64 to 128 µg/mL
Bacillus polymyxa
  MIC: 1 to 2 µg/mL
Bacillus cereus
  MIC: 16 to 32 µg/mL
[5]
  MIC: 64 to 128 µg/mL
Moraxella catarrhalis
  MIC: 32 to 64 µg/mL
Enterococcus faecium; [11]
  MIC: 32 to 64 µg/mL
Enterococcus faecium; Enterococcus faecium NCTC 7171
  MIC: 32 to 64 µg/mL
Micrococcus roseus
  MIC: 1 to 2 µg/mL
[7]
  MIC: 16 to 32 µg/mL
Micrococcus luteus
  MIC: 8 to 16 µg/mL
[2]
  MIC: 64 to 128 µg/mL
Bacillus subtilis
  MIC: 64 to 128 µg/mL
Bacillus megarerium
  MIC: 32 to 64 µg/mL
[8]
  MIC: 32 to 64 µg/mL

## NC(=NN=Cc1cccc2ccccc12)c1cc[n+]([O-])cc1 [Compound 4PYOal]
Bacillus cereus
  MIC: 8 to 16 µg/mL
Moraxella catarrhalis
  MIC: 16 to 32 µg/mL
Enterococcus faecium; [11]
  MIC: 16 to 32 µg/mL
Micrococcus roseus
  MIC: 16 to 32 µg/mL
Micrococcus luteus
  MIC: 16 to 32 µg/mL
Bacillus subtilis
  MIC: 16 to 32 µg/mL
Bacillus megarerium
  MIC: 16 to 32 µg/mL

## N/C(=N\N=C\c1cccc2ccccc12)c1ccccn1 [Compound 2PYal]
MRSA; Staphylococcus aureus, MRSA, 18 h, panel of ten MRSA strains (clinical isolates), read-out: MRSA MIC range
  MIC: > 256 µg/mL
[9]
  % Leucocyte Death: 17.1 ± 4.9%
[10]
  cytotoxicity in the presence of the metabolising system (in words): marked reduction in cytotoxicity

## CC(C)(C)c1ccc(C=NN=C(N)c2cc[n+]([O-])cc2)cc1 [Compound 4PYOfb]
Bacillus cereus
  MIC: 16 to 32 µg/mL
Moraxella catarrhalis
  MIC: 32 to 64 µg/mL
Enterococcus faecium; [11]
  MIC: 16 to 32 µg/mL
Micrococcus roseus
  MIC: 8 to 16 µg/mL
Bacillus subtilis
  MIC: 8 to 16 µg/mL
Bacillus megarerium
  MIC: 16 to 32 µg/mL

## CC(=O)Nc1ccc(C=NN=C(N)c2cc[n+]([O-])cc2)cc1 [Compound 4PYOfa]
Bacillus cereus
  MIC: 8 to 16 µg/mL
Enterococcus faecium; [11]
  MIC: 16 to 32 µg/mL
Micrococcus roseus
  MIC: 16 to 32 µg/mL
Bacillus subtilis
  MIC: 4 to 8 µg/mL
Bacillus megarerium
  MIC: 16 to 32 µg/mL

## NC(=NN=Cc1ccccc1Sc1ccc(Cl)cc1)c1cc[n+]([O-])cc1 [Compound 4PYOeh]
Moraxella catarrhalis
  MIC: 64 to 128 µg/mL
Micrococcus roseus
  MIC: 32 to 64 µg/mL

## quinupristin/dalfopristin
E. faecium isolates
  MIC: ≤ 2 µg/mL

## NC(=NN=Cc1c2ccccc2cc2ccccc12)c1cc[n+]([O-])cc1 [Compound 4PYOam]
[5]
  MIC: 64 to 128 µg/mL
Enterococcus faecium; [11]
  MIC: 64 to 128 µg/mL
Micrococcus roseus
  MIC: 32 to 64 µg/mL
Bacillus subtilis
  MIC: 64 to 128 µg/mL

— US20080096894A1, “Anti-Bacterial Compounds” (ASTON UNIVERSITY, priority 2005, published 2008)
